The source of these data is US20260109707A1, “HETEROBIFUNCTIONAL COMPOUNDS AND METHODS OF TREATING DISEASE” (Halda Therapeutics OpCo. Inc., priority 2022, published 2026).

Assay [1] concerns T-Rex 293 cell line SC3 cells having increased expression of androgen receptor protein due to exposure to doxycycline. The assay is described as follows: Cellular growth inhibition assay, T-Rex 293 SC3 cells with doxycycline (CellTiter-Glo, 72 hours). It counts as cell-based. Particulars: 72 h, T-Rex 293 SC3 cells with increased androgen receptor expression due to doxycycline (10 ng/mL). Put shortly:
(§1)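 Growth inhibition is measured in an inducible AR-expressing T-Rex 293 clone, SC3, cultured with or without 10 ng/mL doxycycline in hormone-depleted medium. Test compounds are applied for 72 hours. GI50 values derive from CellTiter-Glo 2.0 signal fitted by four-parameter regression.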
(In general: In ATP-based viability assays light output follows the ATP content of the culture.)

In assay [2] the test system is T-Rex 293 cell line SC3 cells lacking increased expression of androgen receptor protein. Description: Cellular growth inhibition assay, T-Rex 293 SC3 cells without doxycycline (CellTiter-Glo, 72 hours). The format is cell-based. The following applies: 72 h, T-Rex 293 cell line SC3 cells not exposed to doxycycline (lacking increased androgen receptor expression). In a few lines: as §1

The test system of another assay is VCaP cells. Description: Cellular growth inhibition assay for VCaP cells (CellTiter-Glo, 72 hours). The format is cell-based, human. The following applies: Homo sapiens, VCaP, 72 h. In a few lines: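 Luminescent viability signal after 72 h of compound exposure gave GI50 values by four-parameter nonlinear regression. Compounds were added in 0.5% DMSO to cells plated 24 h earlier at 5000/well in DMEM containing 10% FBS.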

The test system of another assay is T47D cells. The assay is described as follows: Cellular growth inhibition assay for T47D cells (CellTiter-Glo, 72 hours). Particulars: Homo sapiens, T47D, 72 h, 72 hours treatment. The format is cell-based, human. Put shortly:
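Cells are plated at 3000/well and allowed 24 h before treatment. Test compound in medium containing 0.5% DMSO is then added, with DMSO-only wells as negative control, and plates are incubated 72 h at 37 °C. ATP luminescence (CellTiter-Glo 2.0) is then fitted to four parameters to derive GI50.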

For `Cc1sc2c(c1C)C(c1ccc(OC3CC4(CCN(c5ccc(C(=O)N[C@H]6CC[C@H](Oc7ccc(C#N)c(Cl)c7)CC6)nn5)CC4)C3)cc1)=N[C@](C)(C(C)c1ncco1)c1nnc(C)n1-2` (some centres unmarked) [I-237], the GI50 (usually the concentration at which growth is held to half of that of the control) is under 500 nM in assay [1], over 3000 nM in assay [2], over 3000 nM with VCaP cells and under 500 nM in the assay with T47D cells.
On to `Cc1sc2c(c1C)C(c1ccc(C(=O)N3CCN(C(=O)c4ccc(C(=O)N[C@H]5CC[C@H](Oc6ccc(C#N)c(Cl)c6)CC5)nn4)CC3)cc1)=N[C@@H](Cc1ncco1)c1nnc(C)n1-2` [I-238], for which the GI50 (in assay [1]; in assay [2]; in the assay on VCaP cells; with T47D cells) was over 3000 nM in each case.
In the case of `Cc1sc2c(c1C)C(c1ccc(C(=O)N3CCN(C(=O)c4ccc(C(=O)N[C@H]5CC[C@H](Oc6ccc(C#N)c(Cl)c6)CC5)nn4)CC3)cc1)=N[C@H](Cc1ncco1)c1nnc(C)n1-2` [I-239], the GI50 is under 500 nM in assay [1], over 3000 nM in assay [2], 1500 to 3000 nM in the assay on VCaP cells and over 3000 nM with T47D cells.
`Cc1sc2c(c1C)C(c1ccc(C(=O)N3CCC(Cc4ccc(C(=O)N[C@H]5CC[C@H](Oc6ccc(C#N)c(Cl)c6)CC5)nn4)CC3)cc1)=N[C@@H](Cc1ncco1)c1nnc(C)n1-2` [I-240]: the GI50 is under 500 nM in assay [1], over 3000 nM in assay [2], over 3000 nM with VCaP cells and 500 to 1500 nM with T47D cells.
As for `Cc1sc2c(c1C)C(c1ccc(C(=O)N3CCC(Cc4ccc(C(=O)N[C@H]5CC[C@H](Oc6ccc(C#N)c(Cl)c6)CC5)nn4)CC3)cc1)=N[C@H](Cc1ncco1)c1nnc(C)n1-2` [I-241], the GI50 in assay [1] was under 500 nM; in assay [2], 500 to 1500 nM; in the assay on VCaP cells, 500 to 1500 nM; in the assay with T47D cells, 500 to 1500 nM.
For `Cc1sc2c(c1C)C(c1ccc(CN3CCN(C(=O)c4ccc(C(=O)N[C@H]5CC[C@H](Oc6ccc(C#N)c(Cl)c6)CC5)nn4)CC3)cc1)=N[C@@H](Cc1ncco1)c1nnc(C)n1-2` [I-242], the GI50 (in assay [1]; in assay [2]; with VCaP cells; with T47D cells) was under 500 nM throughout.
For `Cc1sc2c(c1C)C(c1ccc(CNC(=O)CN(C)c3ccc(C(=O)N[C@H]4CC[C@H](Oc5ccc(C#N)c(Cl)c5)CC4)nn3)cc1)=N[C@@H](Cc1ncco1)c1nnc(C)n1-2` [I-243], the GI50 in assay [1] is under 500 nM; in assay [2], 500 to 1500 nM; with VCaP cells, 500 to 1500 nM; with T47D cells, 500 to 1500 nM.
Consider `Cc1sc2c(c1C)C(c1ccc([C@H]3CC[C@@H](N4CCCN(c5ccc(C(=O)N[C@H]6CC[C@H](Oc7ccc(C#N)c(Cl)c7)CC6)nn5)CC4)CC3)cc1)=N[C@@H](Cc1ncco1)c1nnc(C)n1-2` [I-244], for which the GI50 is under 500 nM in assay [1], over 3000 nM in assay [2], over 3000 nM with VCaP cells and over 3000 nM with T47D cells.
Turning to `Cc1sc2c(c1C)C(c1ccc(OC3CC4(CCN(c5ccc(C(=O)N[C@H]6CC[C@H](Oc7ccc(C#N)c(Cl)c7)CC6)nn5)CC4)C3)cc1)=N[C@@H](CC(C)(C)O)c1nnc(C)n1-2` [I-245], the GI50 is under 500 nM in assay [1], over 3000 nM in assay [2], under 500 nM in the assay with VCaP cells and over 3000 nM in the assay with T47D cells.
For `Cc1sc2c(c1C)C(c1ccc(O[C@H]3C[C@@H](N(C(C)C)C4CCN(c5ccc(C(=O)N[C@H]6CC[C@H](Oc7ccc(C#N)c(Cl)c7)CC6)nn5)CC4)C3)cc1)=N[C@@H](Cc1ncco1)c1nnc(C)n1-2` [I-246], the GI50 (in assay [1]; in assay [2]; in the assay with VCaP cells; in the assay with T47D cells) was under 500 nM in each case.
For the compound `Cc1sc2c(c1C)C(c1ccc(OC3CC4(CCCN(c5ccc(C(=O)N[C@H]6CC[C@H](Oc7ccc(C#N)c(Cl)c7)CC6)nn5)C4)C3)nc1)=N[C@@H](Cc1ncco1)c1nnc(C)n1-2` (some centres unmarked) [I-247], the GI50 (in assay [1]; in assay [2]; with VCaP cells; with T47D cells) was under 500 nM in each case.
With `Cc1sc2c(c1C)C(c1ccc(NCC(=O)N3CCC(c4ccc(C(=O)N[C@H]5CC[C@H](Oc6ccc(C#N)c(Cl)c6)CC5)nn4)CC3)cc1)=N[C@H](Cc1ncco1)c1nnc(C)n1-2` [I-248], the concentration for 50% growth inhibition (GI50) in assay [1] is under 500 nM; in assay [2], 500 to 1500 nM; in the assay on VCaP cells, under 500 nM; with T47D cells, under 500 nM.
In the case of `Cc1sc2c(c1C)C(c1ccc(CCC(=O)N3CCN(c4ccc(C(=O)N[C@H]5CC[C@H](Oc6ccc(C#N)c(Cl)c6)CC5)nn4)CC3)cc1)=N[C@@H](Cc1ncco1)c1nnc(C)n1-2` [I-249], the 50% growth inhibitory concentration (GI50) is under 500 nM in assay [1], 500 to 1500 nM in assay [2], under 500 nM with VCaP cells and under 500 nM in the assay with T47D cells.
For the compound `Cc1sc2c(c1C)C(c1ccc(N3CCN(C(=O)c4ccc(C(=O)N[C@H]5CC[C@H](Oc6ccc(C#N)c(Cl)c6)CC5)nn4)CC3)cc1)=N[C@@H](Cc1ncco1)c1nnc(C)n1-2` [I-250], the GI50 is under 500 nM in assay [1], over 3000 nM in assay [2], over 3000 nM in the assay with VCaP cells and 500 to 1500 nM with T47D cells.
Take `Cc1sc2c(c1C)C(c1ccc(N3CCN(C(=O)c4ccc(C(=O)N[C@H]5CC[C@H](Oc6ccc(C#N)c(Cl)c6)CC5)nn4)CC3)cc1)=N[C@H](Cc1ncco1)c1nnc(C)n1-2` [I-251]: the GI50 in assay [1] was under 500 nM; in assay [2], 500 to 1500 nM; in the assay with VCaP cells, under 500 nM; in the assay with T47D cells, under 500 nM.
`Cc1sc2c(c1C)C(c1ccc(C[C@@H]3CCCN(c4ccc(C(=O)N[C@H]5CC[C@H](Oc6ccc(C#N)c(Cl)c6)CC5)nn4)C3)cc1)=N[C@@H](Cc1ncco1)c1nnc(C)n1-2` [I-252]: the GI50 (in assay [1]; in assay [2]; in the assay with VCaP cells; with T47D cells) was under 500 nM throughout.
`Cc1sc2c(c1C)C(c1ccc(C[C@H]3CCCN(c4ccc(C(=O)N[C@H]5CC[C@H](Oc6ccc(C#N)c(Cl)c6)CC5)nn4)C3)cc1)=N[C@@H](Cc1ncco1)c1nnc(C)n1-2` [I-253]: the GI50 (in assay [1]; in assay [2]; with VCaP cells; in the assay with T47D cells) was under 500 nM in each case.
In the case of `Cc1sc2c(c1C)C(c1ccc(CC[C@H]3CCCN(c4ccc(C(=O)N[C@H]5CC[C@H](Oc6ccc(C#N)c(Cl)c6)CC5)nn4)C3)cc1)=N[C@@H](Cc1ncco1)c1nnc(C)n1-2` [I-254], the GI50 (in assay [1]; in assay [2]; in the assay with VCaP cells; with T47D cells) was under 500 nM in each case.
In the case of `Cc1sc2c(c1C)C(c1ccc(CC[C@@H]3CCCN(c4ccc(C(=O)N[C@H]5CC[C@H](Oc6ccc(C#N)c(Cl)c6)CC5)nn4)C3)cc1)=N[C@@H](Cc1ncco1)c1nnc(C)n1-2` [I-255], the GI50 in assay [1] was under 500 nM; in assay [2], under 500 nM; in the assay with VCaP cells it was under 500 nM; in the assay with T47D cells it was 500 to 1500 nM.
`Cc1sc2c(c1C)C(c1ccc(OCC[C@@H]3CCCN(c4ccc(C(=O)N[C@H]5CC[C@H](Oc6ccc(C#N)c(Cl)c6)CC5)nn4)C3)cc1)=N[C@@H](Cc1ncco1)c1nnc(C)n1-2` [I-256]: the concentration for 50% growth inhibition (GI50) (in assay [1]; in assay [2]; in the assay on VCaP cells; with T47D cells) was under 500 nM in each case.
In the case of `Cc1sc2c(c1C)C(c1ccc(OCC[C@H]3CCCN(c4ccc(C(=O)N[C@H]5CC[C@H](Oc6ccc(C#N)c(Cl)c6)CC5)nn4)C3)cc1)=N[C@@H](Cc1ncco1)c1nnc(C)n1-2` [I-257], the GI50 (in assay [1]; in assay [2]; with VCaP cells; in the assay with T47D cells) was under 500 nM in each case.
Turning to `Cc1sc2c(c1C)C(c1ccc(C[C@H]3CCC4CN(c5ccc(C(=O)N[C@H]6CC[C@H](Oc7ccc(C#N)c(Cl)c7)CC6)nn5)CCN4C3)cc1)=N[C@H](Cc1ncco1)c1nnc(C)n1-2` (some centres unmarked) [I-260], the GI50 (in assay [1]; in assay [2]; with VCaP cells; in the assay with T47D cells) was under 500 nM throughout.
As for `Cc1sc2c(c1C)C(c1ccc(O[C@H]3C[C@@]4(CCCN(c5ccc(C(=O)N[C@H]6CC[C@H](Oc7ccc(C#N)c(Cl)c7)CC6)nn5)C4)C3)cn1)=N[C@@H](Cc1ncco1)c1nnc(C)n1-2` [I-261], the GI50 (in assay [1]; in assay [2]; in the assay with VCaP cells; in the assay on T47D cells) was under 500 nM in each case.
On to `Cc1sc2c(c1C)C(c1ccc(OC[C@H]3C[C@]4(CCCN(c5ccc(C(=O)N[C@H]6CC[C@H](Oc7ccc(C#N)c(Cl)c7)CC6)nn5)C4)C3)nc1)=N[C@@H](Cc1ncco1)c1nnc(C)n1-2` [I-262], for which the GI50 in assay [1] is under 500 nM; in assay [2], over 3000 nM; in the assay on VCaP cells, under 500 nM; in the assay with T47D cells it was under 500 nM.
In the case of `Cc1sc2c(c1C)C(c1ccc(OC[C@H]3C[C@@]4(CCCN(c5ccc(C(=O)N[C@H]6CC[C@H](Oc7ccc(C#N)c(Cl)c7)CC6)nn5)C4)C3)nc1)=N[C@@H](Cc1ncco1)c1nnc(C)n1-2` [I-263], the GI50 in assay [1] was under 500 nM; in assay [2], over 3000 nM; in the assay on VCaP cells, under 500 nM; with T47D cells, 500 to 1500 nM.
On to `Cc1sc2c(c1C)C(c1ccc(C[C@H]3CC[C@]4(C3)CN(c3ccc(C(=O)N[C@H]5CC[C@H](Oc6ccc(C#N)c(Cl)c6)CC5)nn3)CCO4)cc1)=N[C@@H](Cc1ncco1)c1nnc(C)n1-2` [I-266], for which the GI50 (in assay [1]; in assay [2]; in the assay on VCaP cells; with T47D cells) was under 500 nM in each case.
